The values that follow come from PubChem BioAssay AID1259407 (Chemical Carcinogenesis Research Information System (CCRIS), 2018).

The data set relates to CCRIS mutagenicity, Ames/micronucleus/aberration tests. The experiment in a line: CCRIS mutagenicity studies.

Calls of active or inactive are those of the source. No rule for the calls is given here.

For the compound `c1ccsc1`, the mutagenic call is, setting by setting: (Test System: AMES SALMONELLA TYPHIMURIUM, Strain/Indicator: TA97, Metabolic Activation: HAMSTER, LIVER, AROCLOR 1254 (10%), Method: PREINCUBATION) “inactive; negative”; (Test System: AMES SALMONELLA TYPHIMURIUM, Strain/Indicator: TA97, Metabolic Activation: HAMSTER, LIVER, S-9, AROCLOR 1254 (30%), Method: PREINCUBATION) “inactive; negative”; (Test System: AMES SALMONELLA TYPHIMURIUM, Strain/Indicator: TA97, Metabolic Activation: NONE, Method: PREINCUBATION) “inactive; negative”; (Test System: AMES SALMONELLA TYPHIMURIUM, Strain/Indicator: TA97, Metabolic Activation: RAT, LIVER, S-9, AROCLOR 1254 (10%), Method: PREINCUBATION) “inactive; negative”; (Test System: AMES SALMONELLA TYPHIMURIUM, Strain/Indicator: TA97, Metabolic Activation: RAT, LIVER, S-9, AROCLOR 1254 (30%), Method: PREINCUBATION) “inactive; negative”; (Test System: AMES SALMONELLA TYPHIMURIUM, Strain/Indicator: TA98, Metabolic Activation: HAMSTER, LIVER, S-9, AROCLOR 1254 (10%), Method: PREINCUBATION) “inactive; negative”. Also, the mutagenic call by setting is: (Test System: AMES SALMONELLA TYPHIMURIUM, Strain/Indicator: TA98, Metabolic Activation: HAMSTER, LIVER, S-9, AROCLOR 1254 (30%), Method: PREINCUBATION) “inactive; negative”; (Test System: AMES SALMONELLA TYPHIMURIUM, Strain/Indicator: TA98, Metabolic Activation: NONE, Method: PREINCUBATION) “inactive; negative”; (Test System: AMES SALMONELLA TYPHIMURIUM, Strain/Indicator: TA98, Metabolic Activation: RAT, LIVER, S-9, AROCLOR 1254 (10%), Method: PREINCUBATION) “inactive; negative”; (Test System: AMES SALMONELLA TYPHIMURIUM, Strain/Indicator: TA98, Metabolic Activation: RAT, LIVER, S-9, AROCLOR 1254 (30%), Method: PREINCUBATION) “inactive; negative”; (Test System: AMES SALMONELLA TYPHIMURIUM, Strain/Indicator: TA98, Metabolic Activation: RAT, LIVER, S-9, AROCLOR 1254, Method: PREINCUBATION) “inactive; negative”; (Test System: AMES SALMONELLA TYPHIMURIUM, Strain/Indicator: TA100, Metabolic Activation: HAMSTER, LIVER, S-9, AROCLOR 1254 (10%), Method: PREINCUBATION) “inactive; negative”. Besides, the mutagenic call (Test System: AMES SALMONELLA TYPHIMURIUM, Strain/Indicator: TA100, Metabolic Activation: HAMSTER, LIVER, S-9, AROCLOR 1254 (30%), Method: PREINCUBATION) is “inactive; negative”; the mutagenic call (Test System: AMES SALMONELLA TYPHIMURIUM, Strain/Indicator: TA100, Metabolic Activation: NONE, Method: PREINCUBATION) was “inactive; negative”; the mutagenic call (Test System: AMES SALMONELLA TYPHIMURIUM, Strain/Indicator: TA100, Metabolic Activation: RAT, LIVER, S-9, AROCLOR 1254 (10%), Method: PREINCUBATION) was “inactive; negative”; the mutagenic call (Test System: AMES SALMONELLA TYPHIMURIUM, Strain/Indicator: TA100, Metabolic Activation: RAT, LIVER, S-9, AROCLOR 1254 (30%), Method: PREINCUBATION) was “inactive; negative”; the mutagenic call (Test System: AMES SALMONELLA TYPHIMURIUM, Strain/Indicator: TA100, Metabolic Activation: RAT, LIVER, S-9, AROCLOR 1254, Method: PREINCUBATION) is “inactive; negative”; the mutagenic call (Test System: AMES SALMONELLA TYPHIMURIUM, Strain/Indicator: TA102, Metabolic Activation: NONE, Method: PREINCUBATION) is “inactive; negative”. The mutagenic call is, setting by setting: (Test System: AMES SALMONELLA TYPHIMURIUM, Strain/Indicator: TA102, Metabolic Activation: RAT, LIVER, S-9, AROCLOR 1254, Method: PREINCUBATION) “inactive; negative”; (Test System: AMES SALMONELLA TYPHIMURIUM, Strain/Indicator: TA1535, Metabolic Activation: HAMSTER, LIVER, S-9, AROCLOR 1254 (10%), Method: PREINCUBATION) “inactive; negative”; (Test System: AMES SALMONELLA TYPHIMURIUM, Strain/Indicator: TA1535, Metabolic Activation: HAMSTER, LIVER, S-9, AROCLOR 1254 (30%), Method: PREINCUBATION) “inactive; negative”; (Test System: AMES SALMONELLA TYPHIMURIUM, Strain/Indicator: TA1535, Metabolic Activation: NONE, Method: PREINCUBATION) “inactive; negative”; (Test System: AMES SALMONELLA TYPHIMURIUM, Strain/Indicator: TA1535, Metabolic Activation: RAT, LIVER, S-9, AROCLOR 1254 (10%), Method: PREINCUBATION) “inactive; negative”; (Test System: AMES SALMONELLA TYPHIMURIUM, Strain/Indicator: TA1535, Metabolic Activation: RAT, LIVER, S-9, AROCLOR 1254 (30%), Method: PREINCUBATION) “inactive; negative”. For the same compound, the mutagenic call is, setting by setting: (Test System: AMES SALMONELLA TYPHIMURIUM, Strain/Indicator: TA1537, Metabolic Activation: HAMSTER, LIVER, S-9, AROCLOR 1254 (10%), Method: PREINCUBATION) “inactive; negative”; (Test System: AMES SALMONELLA TYPHIMURIUM, Strain/Indicator: TA1537, Metabolic Activation: NONE, Method: PREINCUBATION) “inactive; negative”; (Test System: AMES SALMONELLA TYPHIMURIUM, Strain/Indicator: TA1537, Metabolic Activation: RAT, LIVER, S-9, AROCLOR 1254 (10%), Method: PREINCUBATION) “inactive; negative”; (Test System: Mouse lymphoma, Strain/Indicator: L5178Y (tk+/tk-), Metabolic Activation: None, Method: Suspension/plate) “active; positive”; (Test System: Mouse lymphoma, Strain/Indicator: L5178Y (tk+/tk-), Metabolic Activation: Rat, Liver, S-9, Aroclor 1254, Method: Suspension/plate) “active; inconclusive (previous evaluation positive)”.

Regarding `C[n+]1ccn(CCS(C)(=O)=O)c1/C=N/O`, the mutagenic call runs as follows: (Test System: AMES SALMONELLA TYPHIMURIUM, Strain/Indicator: TA97, Metabolic Activation: NONE, Method: STANDARD PLATE) “inactive; negative”; (Test System: AMES SALMONELLA TYPHIMURIUM, Strain/Indicator: TA97, Metabolic Activation: RAT, LIVER, S-9, Method: STANDARD PLATE) “inactive; negative”; (Test System: AMES SALMONELLA TYPHIMURIUM, Strain/Indicator: TA100, Metabolic Activation: NONE, Method: STANDARD PLATE) “inactive; negative”; (Test System: AMES SALMONELLA TYPHIMURIUM, Strain/Indicator: TA100, Metabolic Activation: RAT, LIVER, S-9, Method: STANDARD PLATE) “inactive; negative”; (Test System: AMES SALMONELLA TYPHIMURIUM, Strain/Indicator: TA104, Metabolic Activation: NONE, Method: STANDARD PLATE) “inactive; negative”; (Test System: AMES SALMONELLA TYPHIMURIUM, Strain/Indicator: TA104, Metabolic Activation: RAT, LIVER, S-9, Method: STANDARD PLATE) “inactive; negative”. In addition, the mutagenic call (Test System: AMES SALMONELLA TYPHIMURIUM, Strain/Indicator: TA1537, Metabolic Activation: NONE, Method: STANDARD PLATE) is “inactive; negative”; the mutagenic call (Test System: AMES SALMONELLA TYPHIMURIUM, Strain/Indicator: TA1537, Metabolic Activation: RAT, LIVER, S-9, Method: STANDARD PLATE) was “inactive; negative”; the mutagenic call (Test System: AMES SALMONELLA TYPHIMURIUM, Strain/Indicator: TA1538, Metabolic Activation: NONE, Method: STANDARD PLATE) is “inactive; negative”; the mutagenic call (Test System: AMES SALMONELLA TYPHIMURIUM, Strain/Indicator: TA1538, Metabolic Activation: RAT, LIVER, S-9, Method: STANDARD PLATE) was “inactive; negative”.

Take `CCCN(CCCCO)N=O`: the mutagenic call (Test System: AMES SALMONELLA TYPHIMURIUM, Strain/Indicator: TA1535, Metabolic Activation: RAT, LIVER, S-9, KC500 OR PHENOBARBITAL, Method: LIQUID SUSPENSION) was “active; positive”.
